Assays:
Assay type in all cases: cell-based
[1] = Inhibition of human PSEN2/APH1B expressed in MEF cells with Psen1/2 double knockout/Aph1ABC triple knockout by ELISA
[2] = Inhibition of human PSEN1/APH1A expressed in MEF cells with Psen1/2 double knockout/Aph1ABC triple knockout by ELISA
[3] = Inhibition of human PSEN2/APH1A expressed in MEF cells with Psen1/2 double knockout/Aph1ABC triple knockout by ELISA
[4] = Inhibition of human PSEN1/APH1B expressed in MEF cells with Psen1/2 double knockout/Aph1ABC triple knockout by ELISA
Homo sapiens [5] = organism: Homo sapiens; experiment: Selectivity ratio of IC50 for human PSEN2/APH1A expressed in MEF cells with Psen1/2 double knockout/Aph1ABC triple knockout to IC50 for human PSEN1/APH1B expressed in MEF cells with Psen1/2 double knockout/Aph1ABC triple knockout
Homo sapiens [6] = organism: Homo sapiens; experiment: Selectivity ratio of IC50 for human PSEN2/APH1B expressed in MEF cells with Psen1/2 double knockout/Aph1ABC triple knockout to IC50 for human PSEN1/APH1B expressed in MEF cells with Psen1/2 double knockout/Aph1ABC triple knockout

| SMILES | IC50 [1] | IC50 [2] | IC50 [3] | IC50 [4] | Ratio IC50 (Homo sapiens [5]) | Ratio IC50 (Homo sapiens [6]) |
| --- | --- | --- | --- | --- | --- | --- |
| O=C1C[C@@H]2CC[C@H]1[C@@H](c1ccc(C(F)(F)F)nc1)N2S(=O)(=O)c1ccc(Cl)s1 (racemic) | > 10 µM | 1900 nM | > 10 µM | 588 nM | – | – |
| O=S(=O)(c1ccc(Cl)cc1)N1[C@H]2CC[C@H]([C@H](O)C2)[C@H]1c1ccc(C(F)(F)F)cc1 [listing 1 of 2 here] | – | – | – | – | 15 | 15 |
| O=S(=O)(c1ccc(Cl)cc1)N1[C@H]2CC[C@@H]([C@H]1c1ccc(Cl)cc1)[C@@H](O)C2 (racemic) | > 2 µM | 147 nM | > 2 µM | 46 nM | – | – |
| O=S(=O)(c1ccc(Cl)cc1)N1[C@@H]2CCC[C@H]1c1cn[nH]c1C2 | 0.38 µM | 47.2 nM | 0.272 µM | – | > 260 | > 260 |
| O=S(=O)(c1ccc(Cl)cc1)N1[C@H]2CC[C@@H]([C@H]1c1cc(F)ccc1F)[C@@H](O)C2 (racemic) | 0.38 µM | 37 nM | 0.37 µM | 25 nM | 12 | 12 |
| CC(=O)Nc1ccc([C@@H]2[C@@H]3CC[C@@H](C[C@@H]3O)N2S(=O)(=O)c2ccc(Cl)s2)cc1 (racemic) | 0.851 µM | 72.4 nM | 0.513 µM | 26 nM | – | – |
| COCC(=O)Nc1ccc([C@@H]2[C@@H]3CC[C@@H](CC3=O)N2S(=O)(=O)c2ccc(Cl)cc2)cc1 (racemic) | > 10 µM | > 10000 nM | > 10 µM | 1440 nM | – | – |
| O=S(=O)(c1ccc(Cl)cc1)N1[C@H]2CC[C@@H]([C@H]1c1ccc(C(F)(F)F)nc1)[C@@H](O)C2 (racemic) | > 2 µM | 263 nM | > 2 µM | 38 nM | – | – |
| O=C1C[C@@H]2CC[C@H]1[C@@H](c1ccc(C(F)(F)F)cc1)N2S(=O)(=O)c1ccccc1Cl (racemic) | > 10 µM | > 10000 nM | > 10 µM | 5890 nM | – | – |
| O=S(=O)(c1ccc(Cl)cc1)N1[C@H]2CC[C@H]([C@H](O)C2)[C@H]1c1ccc(C(F)(F)F)cc1 (racemic) | > 10 µM | 758 nM | > 10 µM | 109 nM | – | – |
| N#Cc1ccc([C@@H]2[C@@H]3CC[C@@H](C[C@@H]3O)N2S(=O)(=O)c2ccc(Cl)cc2)cc1 (racemic) | 0.631 µM | 64 nM | 0.758 µM | 12 nM | – | – |
| Cc1ccc(S(=O)(=O)N2[C@H]3CC[C@H](C(=O)C3)[C@H]2c2ccc(C(F)(F)F)cc2)cc1 (racemic) | > 5 µM | 281 nM | > 5 µM | 55 nM | > 100 | > 100 |
| O=C1C[C@@H]2CC[C@H]1[C@@H](c1ccccc1Cl)N2S(=O)(=O)c1ccc(Cl)cc1 (racemic) | > 10 µM | 2630 nM | > 10 µM | 389 nM | – | – |
| O=S(=O)(c1ccc(Cl)s1)N1[C@H]2CC[C@@H]([C@H]1c1ccc(F)c(F)c1)[C@@H](O)C2 (racemic) | > 10 µM | 398 nM | > 10 µM | 74 nM | – | – |
| O=S(=O)(N[C@H]1CC[C@@](c2cc(F)ccc2F)(S(=O)(=O)c2ccc(Cl)cc2)CC1)C(F)(F)F | 0.139 µM | 1.4 nM | 0.153 µM | 0.42 nM | > 300 | > 300 |
| O=C1C[C@@H]2CC[C@H]1[C@@H](c1ccc(C(F)(F)F)nc1)N2S(=O)(=O)c1ccc(Cl)cc1 (racemic) | > 10 µM | 690 nM | > 10 µM | 390 nM | > 11 | > 11 |
| O=S(=O)(c1ccc(Cl)cc1)N1[C@H]2CC[C@@H]([C@H]1c1ccccc1)[C@@H](O)C2 (racemic) | 0.602 µM | 102 nM | 0.426 µM | 14 nM | – | – |
| O=S(=O)(c1ccc(Cl)cc1)N1[C@H]2CC[C@H]([C@H](O)C2)[C@H]1c1ccc(C(F)(F)F)cc1 [listing 2 of 2 here] | – | 759 nM | – | 110 nM | – | – |
| CCOC(=O)Nc1ccc([C@@H]2[C@@H]3CC[C@@H](C[C@@H]3O)N2S(=O)(=O)c2ccc(Cl)cc2)cc1 (racemic) | 0.912 µM | 190 nM | 0.288 µM | 29 nM | – | – |
| CCNC(=O)Nc1ccc([C@@H]2[C@@H]3CC[C@@H](C[C@@H]3O)N2S(=O)(=O)c2ccc(Cl)cc2)cc1 (racemic) | 4.79 µM | 446 nM | 2.34 µM | 79.4 nM | – | – |
| N#Cc1ccc([C@@H]2[C@@H]3CC[C@@H](CC3=O)N2S(=O)(=O)c2ccc(Cl)cc2)c(F)c1 (racemic) | 7.58 µM | 691 nM | 3.39 µM | 131 nM | – | – |

| SMILES | IC50 [1] | IC50 [2] | IC50 [3] | IC50 [4] | Ratio IC50 (Homo sapiens [5]) | Ratio IC50 (Homo sapiens [6]) |
| --- | --- | --- | --- | --- | --- | --- |
| CC(=O)Nc1ccc([C@@H]2[C@@H]3CC[C@@H](CC3=O)N2S(=O)(=O)c2ccc(Cl)s2)cc1 (racemic) | 8 µM | 3020 nM | 8.5 µM | 389 nM | – | – |
| N#Cc1ccc([C@@H]2[C@@H]3CC[C@@H](C[C@H]3O)N2S(=O)(=O)c2ccc(Cl)cc2)cn1 | > 10 µM | > 10000 nM | > 10 µM | > 10000 nM | – | – |
| CC(=O)Nc1ccc([C@@H]2[C@@H]3CC[C@@H](C[C@@H]3O)N2S(=O)(=O)c2ccc(Cl)cc2)cc1 (racemic) | > 1.3 µM | 135 nM | 1.2 µM | 24.5 nM | – | – |
| CC(=O)Nc1ccc([C@@H]2[C@@H]3CC[C@@H](CC3=O)N2S(=O)(=O)c2ccc(Cl)cc2)cc1 (racemic) | > 10 µM | 6310 nM | > 10 µM | 709 nM | – | – |
| COc1ccc([C@@H]2[C@@H]3CC[C@@H](C[C@@H]3O)N2S(=O)(=O)c2ccc(Cl)cc2)cn1 (racemic) | > 10 µM | 380 nM | > 10 µM | 62 nM | – | – |
| N#Cc1ccc([C@@H]2[C@@H]3CC[C@@H](C[C@@H]3O)N2S(=O)(=O)c2ccc(Cl)s2)cn1 (racemic) | 3.39 µM | 147 nM | 3.02 µM | 39 nM | – | – |
| COCC(=O)Nc1ccc([C@@H]2[C@@H]3CC[C@@H](C[C@@H]3O)N2S(=O)(=O)c2ccc(Cl)cc2)cc1 (racemic) | 2 µM | 208 nM | 1.41 µM | 52 nM | – | – |
| O=C1C[C@@H]2CC[C@H]1[C@@H](c1ccc(C(F)(F)F)cc1)N2S(=O)(=O)c1ccc(F)cc1 (racemic) | > 10 µM | 1000 nM | > 10 µM | 208 nM | – | – |
| CCNC(=O)Nc1ccc([C@@H]2[C@@H]3CC[C@@H](CC3=O)N2S(=O)(=O)c2ccc(Cl)cc2)cc1 (racemic) | 8.5 µM | 3800 nM | 7 µM | 389 nM | – | – |
| Cc1ccc(S(=O)(=O)N2[C@H]3CC[C@@H]([C@H]2c2ccc(C#N)nc2)[C@@H](O)C3)cc1 (racemic) | > 10 µM | 1100 nM | > 10 µM | 158 nM | – | – |
| N#Cc1ccc([C@@H]2[C@@H]3CC[C@@H](CC3=O)N2S(=O)(=O)c2ccc(Cl)cc2)cc1 (racemic) | > 8 µM | 891 nM | > 8 µM | 234 nM | – | – |
| Cc1ccc(S(=O)(=O)N2[C@H]3CC[C@@H]([C@H]2c2ccc(C(F)(F)F)cc2)[C@@H](O)C3)cc1 (racemic) | > 8 µM | 208 nM | > 8 µM | 50 nM | – | – |
| O=S(=O)(c1ccc(Cl)cc1)N1[C@H]2CC[C@H]([C@H](O)C2)[C@H]1c1ccccc1Cl (racemic) | > 10 µM | 2240 nM | > 10 µM | 426 nM | – | – |
| O=S(=O)(c1ccc(Cl)cc1)N1[C@H]2CC[C@H]([C@H](O)C2)[C@H]1c1ccc(C(F)(F)F)nc1 (racemic) | > 10 µM | 6460 nM | > 10 µM | 776 nM | – | – |
| O=C1C[C@@H]2CC[C@H]1[C@@H](c1ccc(Cl)cc1)N2S(=O)(=O)c1ccc(Cl)s1 (racemic) | > 10 µM | 2240 nM | > 10 µM | 281 nM | – | – |
| O=S(=O)(c1ccc(Cl)s1)N1[C@H]2CC[C@@H]([C@H]1c1ccc(Cl)cc1)[C@@H](O)C2 (racemic) | > 2 µM | 199 nM | > 2 µM | 58 nM | – | – |
| O=S(=O)(c1ccc(Cl)cc1)N1[C@H]2CC[C@@H]([C@H]1c1ccc(F)c(F)c1)[C@@H](O)C2 (racemic) | > 10 µM | 295 nM | > 10 µM | 58 nM | – | – |
| O=S(=O)(c1ccc(Cl)cc1)N1[C@H]2CC[C@H]([C@H](O)C2)[C@H]1c1cc(F)ccc1F (racemic) | 7.76 µM | 851 nM | 7.76 µM | 427 nM | – | – |
| O=C1C[C@@H]2CC[C@H]1[C@@H](c1ccc(F)c(F)c1)N2S(=O)(=O)c1ccc(Cl)s1 (racemic) | > 10 µM | > 10000 nM | > 10 µM | 1950 nM | – | – |
| O=S(=O)(c1ccc(Cl)cc1)N1[C@H]2CC[C@@H]([C@H]1c1ccc(OC(F)(F)F)cc1)[C@@H](O)C2 (racemic) | > 10 µM | 151 nM | > 10 µM | 37 nM | – | – |

Reference: ChEMBL document CHEMBL5625242, “Discovery of brain permeable 2-Azabicyclo[2.2.2]octane sulfonamides as a novel class of presenilin-1 selective γ-secretase inhibitors” (Eur J Med Chem, 2023)
